Structures can show the parent of a compound that is named as a salt.
Biological target: T1, recombinant human brain-derived phosphodiesterase 4D3 (Homo sapiens, UniProt Q08499)
T1 construct: GST; made in house; host or cells: Escherichia coli BL21/pPDE4D3 (FERM BP-7075)
Experiment: Assay of phosphodiesterase IV-inhibiting action (SPA, [3H]cAMP)
Assay type: biochemical
Details: recombinant human brain-derived phosphodiesterase 4D3, [3H]cAMP, 30 minutes at 30° C.; activity without compound = 100%; read-out: Phosphodiesterase 4D inhibiting action (IC50)
Source text: Assay of Phosphodiesterase IV-Inhibiting Action
(1) Expression of Recombinant Human Brain-Derived Phosphodiesterase 4D3 in Escherichia coli and Purification Thereof.
Using the Escherichia coli BL21/pPDE4D3 (FERM BP-7075) producing recombinant human brain-derived phosphodiesterase 4D3, a recombinant human brain-derived phosphodiesterase 4D3 was obtained. The expression and purification of E. coli were in accordance with the protocol attached to GST Gene Fusion System (Pharmacia).
(2) Assay of Phosphodiesterase IV-Inhibiting Action
To a 96-well plate (OPTI plate, Packard), 10 μl of a buffer solution [0.5 M Tris-HCl (pH 7.5), 83 mM MgCl2, 17 mM EGTA], 10 μl of the recombinant human brain-derived phosphodiesterase 4D3 (0.0034 mg/ml) obtained in Section (1) described above, 65 μl of Ultrapure water, 5 μl of an inhibitor sample and 10 μl of [^3H] cAMP were added and reacted for 30 minutes at 30° C. After completing the reaction, 50 μl of SPA beads solution [18 mg/ml Yttrium silicate beads, 18 mM ZnSO4] was added thereto, and the mixture was allowed to stand at room temperature for about 20 minutes. The radioactivity was counted using a scintillation counter (Topcount, Packard). Inhibiting activity of the compound against recombinant human brain-derived phosphodiesterase 4D3 was calculated, based on that enzymatic activity under absence of the compound was 100%.

T1 sequence (Q08499 1-673 isoform Q08499-2): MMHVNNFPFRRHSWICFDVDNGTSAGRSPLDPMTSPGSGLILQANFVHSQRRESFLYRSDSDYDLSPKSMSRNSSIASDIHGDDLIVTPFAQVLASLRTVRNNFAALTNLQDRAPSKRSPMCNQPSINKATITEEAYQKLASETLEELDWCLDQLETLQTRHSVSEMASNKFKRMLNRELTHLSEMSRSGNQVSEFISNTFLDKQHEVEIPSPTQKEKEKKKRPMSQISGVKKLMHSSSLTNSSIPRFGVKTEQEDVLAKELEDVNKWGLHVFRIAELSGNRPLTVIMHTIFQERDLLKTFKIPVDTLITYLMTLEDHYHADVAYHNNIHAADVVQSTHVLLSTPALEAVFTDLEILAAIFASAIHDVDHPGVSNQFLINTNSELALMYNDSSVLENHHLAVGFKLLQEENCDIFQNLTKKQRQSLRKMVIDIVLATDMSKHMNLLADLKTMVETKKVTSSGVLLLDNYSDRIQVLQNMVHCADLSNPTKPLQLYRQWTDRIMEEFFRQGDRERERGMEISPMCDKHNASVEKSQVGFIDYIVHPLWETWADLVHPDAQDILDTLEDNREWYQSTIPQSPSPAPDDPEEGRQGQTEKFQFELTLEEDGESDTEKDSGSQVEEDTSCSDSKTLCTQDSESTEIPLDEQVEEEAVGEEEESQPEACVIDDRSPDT

| SMILES | IC50 |
| --- | --- |
| CCOc1cc2c(c3c1OC(C)(C)C3)C(c1ccc(C(=O)O)c(NCc3ccccc3)c1)=NC(C)(C)C2 [Example 6, 4-(6-Ethoxy-3,4,8,9-tetrahydro-3,3,8,8-tetramethylfuro[2,3-h]isoquinolin-1-yl)-2-[(phenylmethyl)amino]benzoic acid] | 0.566 nM |
| CCOc1cc2c(c3c1OC(C)(C)C3)C(c1ccc(C(=O)OC)c(NC(C)=O)c1)=NC(C)(C)C2 [Example 17, Methyl 2-(acetylamino)-4-(6-ethoxy-3,4,8,9-tetrahydro-3,3,8,8-tetramethylfuro[2,3-h]isoquinolin-1-yl)benzoate] | 4.01 nM |
| CCOc1cc2c(c3c1OC(C)(C)C3)C(c1ccc(C(=O)OC)c(NC(=O)c3ccccn3)c1)=NC(C)(C)C2 [Example 21, Methyl 4-(6-ethoxy-3,4,8,9-tetrahydro-3,3,8,8-tetramethylfuro[2,3-]isoquinolin-1-yl)-2-[(2-pyridinylcarbonyl)amino]benzoate] | 1.89 nM |
| CCOc1cc2c(c3c1OC(C)(C)C3)C(c1ccc(C(N)=O)c(NC(=O)c3ccccn3)c1)=NC(C)(C)C2 [Example 23, N-[2-(Aminocarbonyl)-5-(6-ethoxy-3,4,8,9-tetrahydro-3,3,8,8-tetramethylfuro[2,3-h]isoquinolin-1-yl)phenyl]-2-pyridinecarboxamide] | 0.756 nM |
| CCOc1cc2c(c3c1OC(C)(C)C3)C(c1ccc(C(=O)O)c(NC(=O)c3ccc4ccccc4n3)c1)=NC(C)(C)C2 [Example 30, 4-(6-Ethoxy-3,4,8,9-tetrahydro-3,3,8,8-tetramethylfuro[2,3-h]isoquinolin-1-yl)-2-[(2-quinolinylcarbonyl)amino]benzoic acid] | 0.761 nM |
| CCNc1cc(C2=NC(C)(C)Cc3cc(OCC)c4c(c32)CC(C)(C)O4)ccc1C(=O)O [Example 50, 4-(6-Ethoxy-3,4,8,9-tetrahydro-3,3,8,8-tetramethylfuro[2,3-h]isoquinolin-1-yl)-2-(ethylamino)benzoic acid] | 8.4 nM |
| CCOc1cc2c(c3c1OC(C)(C)C3)C(c1ccc(C(=O)NC)c(NC(=O)c3ccccc3)c1)=NC(C)(C)C2 [Example 57, 2-(Benzoylamino)-4-(6-ethoxy-3,4,8,9-tetrahydro-3,3,8,8-tetramethylfuro[2,3-h]isoquinolin-1-yl)-N-methylbenzamide] | 1.63 nM |
| CCOc1cc2c(c3c1OC(C)(C)C3)C(c1ccc(C#N)c(NCc3ccccc3)c1)=NC(C)(C)C2 [Example 74, 4-(6-Ethoxy-3,4,8,9-tetrahydro-3,3,8,8-tetramethylfuro[2,3-h]isoquinolin-1-yl)-2-[(phenylmethyl)amino]benzonitrile] | 1.71 nM |
| CCOc1cc2c(c3c1OC(C)(C)C3)C(c1ccc(/C=C/C(=O)O)c(OC)c1)=NC(C)(C)C2 [Example 85, (E)-3-[4-(6-Ethoxy-3,4,8,9-tetrahydro-3,3,8,8-tetramethylfuro[2,3-h]isoquinolin-1-yl)-2-methoxyphenyl]-2-propenoic acid] | 5.5 nM |

Continued, values first:

| IC50 | SMILES |
| --- | --- |
| 3.27 nM | CCOc1cc2c(c3c1OC(C)(C)C3)C(c1ccc(COCC(=O)OC)cc1)=NC(C)(C)C2 [Example 94, Methyl [[4-(6-ethoxy-3,4,8,9-tetrahydro-3,3,8,8-tetramethylfuro[2,3-h]isoquinolin-1-yl)phenyl]methoxy]acetate hydrochloride] |
| 10.9 nM | CCOc1cc2c(c3c1OC(C)(C)C3)C(c1ccc(COCC(=O)O)cc1)=NC(C)(C)C2 [Example 95, [[4-(6-Ethoxy-3,4,8,9-tetrahydro-3,3,8,8-tetramethylfuro[2,3-h]isoquinolin-1-yl)phenyl]methoxy]acetic acid hydrochloride] |
| 11.5 nM | CCOc1cc2c(c3c1OC(C)(C)C3)C(c1ccc(C(C)(C)C(=O)O)cc1)=NC(C)(C)C2 [Example 118, 4-(6-Ethoxy-3,4,8,9-tetrahydro-3,3,8,8-tetramethylfuro[2,3-h]isoquinolin-1-yl)-α,α-dimethylbenzeneacetic acid hydrochloride hydrate] |
| 3.5 nM | CCOc1cc2c(c3c1OC(C)(C)C3)C(c1ccc(C(C)(C)C(N)=O)cc1)=NC(C)(C)C2 [Example 120, 4-(6-Ethoxy-3,4,8,9-tetrahydro-3,3,8,8-tetramethylfuro[2,3-h]isoquinolin-1-yl)-α,α-dimethylbenzeneacetamide] |
| 0.637 nM | CCOc1cc2c(c3c1OC(C)(C)C3)C(c1ccc(CC(=O)O)c(NC(=O)c3ccccn3)c1)=NC(C)(C)C2 [Example 124, 4-(6-Ethoxy-3,4,8,9-tetrahydro-3,3,8,8-tetramethylfuro[2,3-h]isoquinolin-1-yl)-2-[(2-pyridinylcarbonyl)amino]benzeneacetic acid] |

— US20060106048A1, “Furoisoquinoline derivative and use thereof” (priority 2002, published 2006)
